{"source": "patent US20020099086A1", "about": "“Use of extracts from aristolochia in the treatment of AIDS” (PROTEOME SCIENCES PLC, priority 1998, published 2002)", "key": {"[1]": {"tested_on": "remaining receptors of twenty seven common receptor types", "experiment": "Interaction with neurotransmitter receptors", "format": "binding", "details": "twenty seven common receptor types tested"}, "[2]": {"tested_on": "serotonin receptors", "experiment": "Interaction with neurotransmitter receptors", "format": "binding"}, "[3]": {"target": "opiate mu receptor (Homo sapiens, UniProt P35372)", "sequence (P35372 whole entry)": "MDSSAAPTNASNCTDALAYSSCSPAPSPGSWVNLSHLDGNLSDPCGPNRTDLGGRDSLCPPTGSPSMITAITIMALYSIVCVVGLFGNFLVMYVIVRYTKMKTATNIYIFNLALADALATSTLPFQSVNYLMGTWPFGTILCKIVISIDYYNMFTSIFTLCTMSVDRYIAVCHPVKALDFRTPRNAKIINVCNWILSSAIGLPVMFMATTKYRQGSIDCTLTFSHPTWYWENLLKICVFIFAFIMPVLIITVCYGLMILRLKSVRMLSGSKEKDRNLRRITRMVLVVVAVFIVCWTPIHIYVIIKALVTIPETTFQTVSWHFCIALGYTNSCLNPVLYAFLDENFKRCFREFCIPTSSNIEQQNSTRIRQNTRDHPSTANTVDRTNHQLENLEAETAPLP", "experiment": "Interaction with neurotransmitter receptors", "format": "binding"}, "[4]": {"tested_on": "dopamine receptors", "experiment": "Interaction with neurotransmitter receptors", "format": "binding"}, "[5]": {"tested_on": "Parkinsonism", "details": "disclosed in U.S. Pat. No. 4782077; cited from earlier work"}, "[6]": {"tested_on": "GABA receptors", "experiment": "Interaction with neurotransmitter receptors", "format": "binding"}}}
{"substance": "Taliscanine [Taliscanine (5)]", "values": [{"measurement": "levels of inhibition with the remaining receptors", "setting": "[1]", "value": "very poor levels of inhibition"}, {"measurement": "activity at the serotonin receptors", "setting": "[2]", "value": "negligible activity"}, {"measurement": "inhibition, opiate mu receptor", "setting": "[3]", "value": 50, "unit": "%"}, {"measurement": "activity at the dopamine receptors", "setting": "[4]", "value": "negligible activity"}, {"measurement": "symptoms of Parkinsonism and related neurological disorders", "setting": "[5]", "value": "alleviates the symptoms of Parkinsonism and related neurological disorders"}, {"measurement": "activity at the GABA receptors", "setting": "[6]", "value": "negligible activity"}]}
